Data: patent US12581252B2, “Substituted pyrrolo[3,4-b]pyridines as PI3K-α inhibitors” (Relay Therapeutics, Inc., priority 2020, dated 2026)

Molecular target: H1047R PIK3CA enzyme (Homo sapiens, UniProt P42336, H1047R)
Experiment: ADP-Glo Biochemical PIK3CA Kinase Assay

H1047R PIK3CA enzyme, sequence (P42336 whole entry H1047R): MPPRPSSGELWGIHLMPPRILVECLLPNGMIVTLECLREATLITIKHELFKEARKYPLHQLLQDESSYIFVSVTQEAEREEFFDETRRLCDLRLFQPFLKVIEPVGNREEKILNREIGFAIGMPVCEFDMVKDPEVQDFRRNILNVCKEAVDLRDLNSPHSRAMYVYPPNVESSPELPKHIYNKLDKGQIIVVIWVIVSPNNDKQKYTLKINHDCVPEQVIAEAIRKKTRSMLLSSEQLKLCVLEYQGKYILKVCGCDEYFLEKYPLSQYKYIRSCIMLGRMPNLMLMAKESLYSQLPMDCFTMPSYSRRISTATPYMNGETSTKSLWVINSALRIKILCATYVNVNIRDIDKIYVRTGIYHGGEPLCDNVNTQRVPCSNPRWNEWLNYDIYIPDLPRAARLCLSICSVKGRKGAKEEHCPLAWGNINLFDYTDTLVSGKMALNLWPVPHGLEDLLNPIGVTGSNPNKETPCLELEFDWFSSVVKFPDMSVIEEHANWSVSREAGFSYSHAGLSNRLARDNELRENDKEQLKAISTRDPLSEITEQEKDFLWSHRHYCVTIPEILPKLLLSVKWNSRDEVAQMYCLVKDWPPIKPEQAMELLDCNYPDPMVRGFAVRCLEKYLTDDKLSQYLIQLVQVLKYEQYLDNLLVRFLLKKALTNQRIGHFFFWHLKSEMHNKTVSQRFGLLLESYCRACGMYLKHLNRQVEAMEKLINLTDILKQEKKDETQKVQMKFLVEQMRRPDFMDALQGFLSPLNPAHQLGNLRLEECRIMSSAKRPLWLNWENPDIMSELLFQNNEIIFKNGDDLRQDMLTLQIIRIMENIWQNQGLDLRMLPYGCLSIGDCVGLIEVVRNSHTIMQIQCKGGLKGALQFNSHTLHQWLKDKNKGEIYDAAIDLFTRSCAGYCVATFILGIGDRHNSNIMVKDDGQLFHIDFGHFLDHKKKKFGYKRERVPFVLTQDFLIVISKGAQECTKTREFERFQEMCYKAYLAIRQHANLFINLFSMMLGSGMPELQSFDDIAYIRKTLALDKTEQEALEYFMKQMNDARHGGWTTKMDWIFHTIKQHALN
H1047R PIK3CA enzyme, sequence (P27986 whole entry partner): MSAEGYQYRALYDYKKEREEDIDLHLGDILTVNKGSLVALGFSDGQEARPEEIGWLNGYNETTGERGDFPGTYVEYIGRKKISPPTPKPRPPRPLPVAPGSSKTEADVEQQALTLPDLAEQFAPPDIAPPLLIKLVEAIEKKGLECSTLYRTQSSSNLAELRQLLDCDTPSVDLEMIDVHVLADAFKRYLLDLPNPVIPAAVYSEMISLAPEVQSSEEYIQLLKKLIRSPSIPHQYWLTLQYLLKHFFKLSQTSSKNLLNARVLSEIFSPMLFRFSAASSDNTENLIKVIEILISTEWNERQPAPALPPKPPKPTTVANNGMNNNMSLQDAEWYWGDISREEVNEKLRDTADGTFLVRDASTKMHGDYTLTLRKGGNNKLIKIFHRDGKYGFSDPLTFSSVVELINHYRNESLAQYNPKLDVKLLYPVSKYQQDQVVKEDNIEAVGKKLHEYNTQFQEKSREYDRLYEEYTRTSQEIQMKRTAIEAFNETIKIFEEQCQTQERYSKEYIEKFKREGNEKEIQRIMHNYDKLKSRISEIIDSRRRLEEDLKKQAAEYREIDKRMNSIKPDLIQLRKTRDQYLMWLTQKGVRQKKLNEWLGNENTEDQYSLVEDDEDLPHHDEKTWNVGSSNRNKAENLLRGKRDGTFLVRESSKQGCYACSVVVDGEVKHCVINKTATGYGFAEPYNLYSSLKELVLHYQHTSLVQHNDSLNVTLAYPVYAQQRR

| IC50 [µM] | Compound |
| --- | --- |
| 1 to 10 | O=C(Nc1cc(-c2ccc3nc(C(F)F)nn3c2)cc2c1[C@@H](c1cc(F)ccc1Cl)NC2=O)c1cc(F)cc(C(F)(F)F)c1 [Compound I-1986] |
| 0.5 to 1 | O=C1NC[C@@H](c2cc(NC(=O)c3cc(F)cc(C(F)(F)F)c3)c3c(c2)C(=O)N[C@@H]3c2cc(F)ccc2Cl)O1 (single isomer, unassigned) [Compound I-1560] |
| 10 to 100 | O=C1NC(c2cc(F)ccc2Cl)c2c(C#Cc3ccccc3)cccc21 (centres unmarked) [Compound I-2097] |
| 10 to 100 | O=C1N[C@@H](c2cc(F)ccc2Cl)c2c(N[C@@H]3CCOc4ccccc43)cc(Br)cc21 (racemic) [Compound I-2014] |
| 1 to 10 | CC1(Cc2cc(NC(=O)N3C[C@](O)(C(F)(F)F)c4cc(F)ccc43)c3c(c2)C(=O)N[C@H]3c2cc(F)ccc2Cl)COC1 (single isomer, unassigned) [Compound I-2659] |
| ≤ 0.1 | O=C(Nc1cc(-c2cn3cc(C(F)F)nc3cn2)cc2c1C(c1cc(F)ccc1Cl)NC2=O)c1cc(F)cc(C(F)(F)F)c1 (centres unmarked) [Compound I-2065] |
| 1 to 10 | O=C1N[C@H](c2cc(F)ccc2Cl)c2c(NC(=O)N3C[C@@](O)(C(F)(F)F)c4cc(F)ccc43)cc(C(F)F)cc21 (single isomer, unassigned) [Compound I-2577] |
| ≤ 0.1 | N#Cc1nnc2ccc(-c3cc(NC(=O)c4cc(F)cc(C(F)(F)F)c4)c4c(c3)C(=O)NC4c3cc(F)ccc3Cl)cn12 (centres unmarked) [Compound I-1708] |
| 1 to 10 | NS(=O)(=O)Cc1cc(NC(=O)c2cc(F)cc(C(F)(F)F)c2)c2c(c1)C(=O)N[C@@H]2c1cc(F)ccc1Cl [Compound I-1479] |
| 10 to 100 | CN(C)S(=O)(=O)c1cc(-c2ccc3ncnn3c2)cc2c1[C@@H](c1cc(F)ccc1Cl)NC2=O [Compound I-2098] |
| 10 to 100 | O=C(Nc1cc(Br)cc2c1C(c1cc(F)ccc1Cl)NC2=O)NC1(CC(F)(F)F)CC1 (centres unmarked) [Compound I-1755] |
| 10 to 100 | O=C1NC(c2cc(F)ccc2Cl)c2c(NC(=O)C34CC(C(O)(C5CC5)C5CC5)(C3)C4)cccc21 (centres unmarked) [Compound I-2118] |
| ≤ 0.1 | CN1C(=O)CC[C@@H]1COc1cc(NC(=O)c2cc(F)cc(C(F)(F)F)c2)c2c(c1)C(=O)N[C@H]2c1cc(F)ccc1Cl (single isomer, unassigned) [Compound I-1567] |
| ≤ 0.1 | O=C1NC(c2cc(F)ccc2Cl)c2c(NC(=O)N3CCc4ccc(F)cc43)cc(Br)cc21 (centres unmarked) [Compound I-1717] |
| 1 to 10 | C=CC(CC(=O)Nc1cccc2c1C(c1cc(F)ccc1Cl)NC2=O)C(C)C(F)(F)F (mixture of isomers) [Compound I-2195] |
| 10 to 100 | N#Cc1cccc2c1CCN2C(=O)Nc1cccc2c1C(c1cc(F)ccc1Cl)NC2=O (centres unmarked) [Compound I-2425] |
| 10 to 100 | C[C@@H]([C@H]1C[C@H](O)CN1C(=O)Nc1cccc2c1[C@H](c1cc(F)ccc1Cl)NC2=O)C(F)(F)F (single isomer, unassigned) [Compound I-2378] |
| 1 to 10 | O=C(Nc1cccc2c1C(CC1CCCCC1)NC2=O)c1cc(F)cc(C(F)(F)F)c1 (centres unmarked) [Compound I-1732] |
| ≤ 0.1 | O=C1NC(c2cc(F)ccc2Cl)c2c(Nc3n[nH]c4c(C(F)(F)F)cc(F)cc34)cc(-c3ccc4ncnn4c3)cc21 (centres unmarked) [Compound I-2049] |
| 1 to 10 | [2H]c1nc2cnc(-c3cc(NC(=O)c4cc(F)cc(C(F)(F)F)c4)c4c(c3)C(=O)N[C@@H]4c3cc(F)ccc3Cl)cn2n1 [Compound I-2068] |
| ≤ 0.1 | O=C(Nc1cc(-c2ccc3ncnn3c2)cc2c1C(c1cc(F)ccc1Cl)NC2=O)c1cc(F)cc2c1NC(=O)C2(F)F (centres unmarked) [Compound I-1547] |
| 10 to 100 | O=C1N[C@H](c2cc(F)ccc2Cl)c2c(NC(=O)N3C[C@H](O)c4ccccc43)cc(-c3ccc4ncnn4c3)cc21 (single isomer, unassigned) [Compound I-1578] |
| 0.5 to 1 | CC(C)(C#N)n1cc(-c2cc(NC(=O)c3cc(F)cc(C(F)(F)F)c3)c3c(c2)C(=O)N[C@@H]3c2cc(F)ccc2Cl)cn1 [Compound I-1660] |
| 10 to 100 | O=C1NC(c2cc(F)ccc2Cl)c2c1cccc2-n1cnc2ccccc2c1=O (centres unmarked) [Compound I-1516] |
| ≤ 0.1 | O=C(Nc1cc(-c2ccc3ocnc3n2)cc2c1C(c1cc(F)ccc1Cl)NC2=O)c1cc(F)cc(C(F)(F)F)c1 (centres unmarked) [Compound I-1553] |
| 10 to 100 | O=C1NC(c2cc(F)ccc2Cl)c2c(NC(=O)C3(c4cc(F)ccc4F)CCCC3)cc(Br)cc21 (centres unmarked) [Compound I-1819] |
| 0.1 to 0.5 | CC(C)[C@@]1(O)CN(C(=O)Nc2cccc3c2[C@@H](c2cc(F)ccc2Cl)NC3=O)c2ccc(F)cc21 (single isomer, unassigned) [Compound I-2454] |

Further lines, the molecule ahead of its results:

| Compound | IC50 [µM] |
| --- | --- |
| O=C(Nc1cc(N2CC3(CCN3)C2)cc2c1C(c1cc(F)ccc1Cl)NC2=O)c1cc(F)cc(C(F)(F)F)c1 (centres unmarked) [Compound I-1388] | 0.1 to 0.5 |
| CC(C)(O)Cc1cc(NC(=O)c2cc(F)cc(Cl)c2)c2c(c1)C(=O)NC2c1cc(F)ccc1Cl (centres unmarked) [Compound I-645] | ≤ 0.1 |
| O=C(Nc1cc(Br)cc2c1C(c1cc(F)ccc1Cl)NC2=O)c1cc(Cl)ccc1F (centres unmarked) [Compound I-794] | 1 to 10 |
| O=C(Nc1cc(CC(O)CO)cc2c1C(c1cc(F)ccc1Cl)NC2=O)c1cc(F)cc(C(F)(F)F)c1 (centres unmarked) [Compound I-1376] | ≤ 0.1 |
| O=C(Nc1cc(CCO)cc2c1C(c1cc(F)ccc1Cl)NC2=O)c1cc(F)cc(C(F)(F)F)c1 (centres unmarked) [Compound I-579] | ≤ 0.1 |
| O=C1NC(c2cc(F)ccc2Cl)c2c(NC(=O)N3CCCOCC3)cc(Br)cc21 (centres unmarked) [Compound I-574] | 10 to 100 |
| O=C(Nc1cc(-c2ccn3ccnc3c2)cc2c1C(c1cc(F)ccc1Cl)NC2=O)c1cc(F)cc(C(F)(F)F)c1 (centres unmarked) [Compound I-1372] | ≤ 0.1 |
| O=C(Nc1cc(-c2cn[nH]c2)nc2c1C(c1cc(F)ccc1Cl)NC2=O)c1cc(F)cc(Cl)c1 (centres unmarked) [Compound I-182] | 0.1 to 0.5 |
| Cn1cc(Oc2cc(NC(=O)c3cc(F)cc(C(F)(F)F)c3)c3c(c2)C(=O)NC3c2cc(F)ccc2Cl)cn1 (centres unmarked) [Compound I-1120] | 1 to 10 |
| Cc1ccccc1C1NC(=O)Oc2cccc(Br)c21 (centres unmarked) [Compound I-10] | 10 to 100 |
| O=C(Cc1ccccc1C(F)(F)F)Nc1cc(Br)cc2c1C(c1cc(F)ccc1Cl)NC2=O (centres unmarked) [Compound I-568] | 1 to 10 |
| Cc1ccc2c(c1)N(C(=O)Nc1cccc3c1CN(C)C3=O)CC2 [Compound I-405] | 10 to 100 |
| CC(C)n1cc(-c2cc(NC(=O)c3cc(F)cc(C(F)(F)F)c3)c3c(c2)C(=O)N[C@@H]3c2cc(F)ccc2Cl)ccc1=O [Compound I-742] | 1 to 10 |
| O=C(Nc1cc(NC2COC2)cc2c1C(c1cc(F)ccc1Cl)NC2=O)c1cc(F)cc(C(F)(F)F)c1 (centres unmarked) [Compound I-613] | ≤ 0.1 |
| CS(=O)(=O)N1CC(c2cc(NC(=O)c3cc(F)cc(C(F)(F)F)c3)c3c(c2)C(=O)NC3c2cc(F)ccc2Cl)C1 (centres unmarked) [Compound I-1228] | ≤ 0.1 |
| O=C(Nc1cc(-c2ccn3ccnc3c2)cc2c1[C@H](c1cc(F)ccc1Cl)NC2=O)c1cc(F)cc(C(F)(F)F)c1 [Compound I-1450] | ≤ 0.1 |
| CC1(O)CN(c2cc(NC(=O)c3cc(F)cc(C(F)(F)F)c3)c3c(n2)C(=O)NC3c2cc(F)ccc2Cl)C1 (centres unmarked) [Compound I-322] | 0.1 to 0.5 |
| O=C(Nc1cc(-n2cccn2)cc2c1[C@@H](c1cc(F)ccc1Cl)NC2=O)c1cc(F)cc(C(F)(F)F)c1 [Compound I-1070] | 1 to 10 |
| O=C(Nc1cc(-c2ncc[nH]2)cc2c1[C@@H](c1cc(F)ccc1Cl)NC2=O)c1cc(F)cc(C(F)(F)F)c1 [Compound I-918] | 0.5 to 1 |

| Compound | IC50 [µM] |
| --- | --- |
| O=C(Nc1cc(-c2cn3ncccc3n2)cc2c1C(c1cc(F)ccc1Cl)NC2=O)c1cc(F)cc(C(F)(F)F)c1 (centres unmarked) [Compound I-1306] | ≤ 0.1 |
| O=C(Nc1cc(NC2COC2)cc2c1[C@@H](c1cc(F)ccc1Cl)NC2=O)c1cc(F)cc(C(F)(F)F)c1 [Compound I-830] | 1 to 10 |
| Cc1ccccc1[C@H]1NC(=O)c2cc(CO)cc(NC(=O)c3nsc4ccccc34)c21 [Compound I-307] | 1 to 10 |
| O=C(Nc1cc(-c2ccc(C(F)F)nc2)cc2c1C(c1cc(F)ccc1Cl)NC2=O)c1cc(F)cc(C(F)(F)F)c1 (centres unmarked) [Compound I-1932] | 0.1 to 0.5 |
| O=C(Nc1cc(Cn2ccnc2)cc2c1C(c1cc(F)ccc1Cl)NC2=O)c1cc(F)cc(C(F)(F)F)c1 (centres unmarked) [Compound I-1430] | ≤ 0.1 |
| O=C1NC(c2cc(F)ccc2Cl)c2c(NC(=O)C34CC5CC(C3)CC(C(F)(F)F)(C5)C4)cc(Br)cc21 (centres unmarked) [Compound I-1183] | ≤ 0.1 |
| O=C(Nc1cc(OC2CCCOC2)cc2c1C(c1cc(F)ccc1Cl)NC2=O)c1cc(F)cc(C(F)(F)F)c1 (racemic) [Compound I-1239] | ≤ 0.1 |
| Cc1cccnc1C1NC(=O)c2cccc(NC(=O)c3csc4ccccc34)c21 (centres unmarked) [Compound I-49] | 1 to 10 |
| O=C(Nc1cc(OC2CC(O)C2)cc2c1C(c1cc(F)ccc1Cl)NC2=O)c1cc(F)cc(C(F)(F)F)c1 (centres unmarked) [Compound I-1132] | 0.1 to 0.5 |
| O=C(Nc1cc(NC(=O)c2cc(F)cc(C(F)(F)F)c2)c2c(c1)C(=O)N[C@H]2c1cc(F)ccc1Cl)c1cccnc1 [Compound I-1477] | ≤ 0.1 |
| Cc1ccccc1C1NC(=O)c2cccc(NC(=O)c3cccc(F)c3)c21 (centres unmarked) [Compound I-475] | 1 to 10 |
| Cn1cc2c(C(=O)Nc3cccc4c3C(c3cc(F)ccc3Cl)NC4=O)cc(F)cc2n1 (centres unmarked) [Compound I-870] | 10 to 100 |
| O=C(Nc1cc(Br)cc2c1C(c1cc(F)ccc1Cl)NC2=O)c1ccc[n+]([O-])c1 (centres unmarked) [Compound I-1284] | 10 to 100 |
| Cn1ncc(C2NC(=O)c3cccc(NC(=O)c4nsc5ccccc45)c32)c1C(F)(F)F (centres unmarked) [Compound I-85] | 1 to 10 |
| Cc1ccccc1C1NC(=O)c2cc(Br)cc(NC(=O)c3cncc(C(F)(F)F)c3)c21 (centres unmarked) [Compound I-528] | 1 to 10 |
| O=C(Nc1cc(N[C@H]2C[C@@H](O)C2)cc2c1C(c1cc(F)ccc1Cl)NC2=O)c1cc(F)cc(C(F)(F)F)c1 (mixture of isomers) [Compound I-478] | ≤ 0.1 |
| N#CC1CN(c2cc(NC(=O)c3cc(F)cc(C(F)(F)F)c3)c3c(c2)C(=O)NC3c2cc(F)ccc2Cl)C1 (centres unmarked) [Compound I-723] | ≤ 0.1 |
| Cc1ccccc1[C@@H]1NC(=O)c2nccc(NC(=O)N3CCc4ccccc43)c21 [Compound I-227] | 0.1 to 0.5 |
| Nc1ncc(-c2cc(NC(=O)c3cc(F)cc(C(F)(F)F)c3)c3c(c2)C(=O)N[C@H]3c2cc(F)ccc2Cl)cn1 (stereo in doubt) [Compound I-1004] | 1 to 10 |
